Legend:
AKT1 E17K [1] = target: T1, AKT1 E17K (Homo sapiens (Human), UniProt P31749, E17K); assay: Dissociation rate by intact protein LCMS after ARQ092 chase; type: binding; conditions: for AKT1 E17K t1/2: compound 1.5 μM, 2 hours at 37° C., then ARQ092 50 μM; for Off-rate Selectivity E17K/WT: ratio of t1/2
Experimental: (§1) AKT1 WT or AKT1 E17K (1 μM) were treated with a compound of Table 1 (1.5 μM) for 2 hours at 37° C., then ARQ092 (50 μM final concentration) was added to prevent aldehyde-containing compound rebinding after initial dissociation. At various timepoints, aliquots were removed and quenched with 5 mM NaBH4 for 5 min to capture the reversible imine through reductive amination. Reduction reactions were quenched by diluting the sample in equal volume acetonitrile+1% TFA, then analyzed by LCMS. Deconvoluted monoisotopic intensities of unmodified vs. compound-modified mass peaks were compared.
Target sequence in this assay (P31749 2-480 E17K): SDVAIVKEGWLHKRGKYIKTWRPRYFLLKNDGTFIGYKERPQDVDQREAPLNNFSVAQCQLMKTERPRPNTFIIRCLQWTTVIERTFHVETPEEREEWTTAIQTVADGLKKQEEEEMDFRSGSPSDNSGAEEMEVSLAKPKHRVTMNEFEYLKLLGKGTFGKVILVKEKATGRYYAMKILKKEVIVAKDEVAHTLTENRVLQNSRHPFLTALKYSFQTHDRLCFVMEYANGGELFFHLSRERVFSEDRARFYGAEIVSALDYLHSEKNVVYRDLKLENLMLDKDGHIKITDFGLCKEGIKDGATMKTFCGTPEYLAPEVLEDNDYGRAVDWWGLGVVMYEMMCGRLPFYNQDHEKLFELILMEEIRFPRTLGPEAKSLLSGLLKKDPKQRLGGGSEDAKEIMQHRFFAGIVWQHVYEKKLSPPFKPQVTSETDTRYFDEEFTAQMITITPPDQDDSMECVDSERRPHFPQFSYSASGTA

AKT1 WT [2] = target: T2, AKT1 WT (Homo sapiens (Human), UniProt P31749); assay: as above; type: binding; conditions: compound 1.5 μM, 2 hours at 37° C., then ARQ092 50 μM
Experimental: as §1
Target sequence in this assay (P31749 2-480): as the sequence (P31749 2-480 E17K) above, with K16E counted along it

AKT1 E17K mutant protein = AKT1 E17K mutant protein (Homo sapiens (Human), UniProt P31749, E17K); assay: Intact mass spectrometry, covalent complex formation and ARQ-092 competition; type: binding; conditions: for covalent complex formation with AKT1 E17K mutant protein / covalent complex formation with AKT1 E17K mutant protein in presence of competitor: protein 1 μM, compound 1.5 μM, 2 hrs at 37° C., NaBH4 reduction; for covalent complex formation with AKT1 E17K mutant protein: absence of competitor; for covalent complex formation with AKT1 E17K mutant protein in presence of competitor: with ARQ092 (50 μM)
AKT1 E17K mutant protein, sequence (P31749 2-480 E17K): as the sequence (P31749 2-480 E17K) above
Experimental: (§2) AKT1 WT or AKT1 E17K (1 μM) was treated with a compound from Table 1 (1.5 μM) for 2 hrs at 37° C., with and without ARQ092 (50 μM) competitor as a specificity control. Reversible imines were captured by reductive amination with 5 mM NaBH4 for 5 min. Reduction reactions were quenched by diluting the sample in equal volume acetonitrile+1% TFA, then analyzed by LCMS.
(§3) FIGS. 1 to 25 provide intact mass spectra for AKT1 WT protein and AKT1 E17K mutant protein after incubation with compounds of the present disclosure and subsequent borohydride reduction. […] Further, FIGS. 1 to 10, 12, and 14 to 25 each provide intact mass spectra following the incubation of an AKT1 protein with a compound of the present disclosure both in the absence of a competitor molecule (i.e., ARQ-092, a molecule known to bind to and inhibit the function of AKT1); and in the presence of a significant stoichiometric excess of a competitor molecule.

AKT1 WT [3] = target: T2, AKT1 WT; assay: as above; type: binding; conditions: protein 1 μM, compound 1.5 μM, 2 hrs at 37° C., NaBH4 reduction; for covalent complex formation with AKT1 WT protein: absence of competitor; for covalent complex formation with AKT1 WT protein in presence of competitor: with ARQ092 (50 μM)
Experimental: as §2, §3
Target sequence in this assay (P31749 2-480): as the sequence (P31749 2-480 E17K) above, with K16E counted along it

AKT1 E17K [4] = target: T1, AKT1 E17K; assay: Live cell target engagement (NanoBRET) in HEK293 cells; type: cell-based; conditions: for IC50: HEK293, 2 hours at 37° C.
Target sequence in this assay (P31749 whole entry E17K): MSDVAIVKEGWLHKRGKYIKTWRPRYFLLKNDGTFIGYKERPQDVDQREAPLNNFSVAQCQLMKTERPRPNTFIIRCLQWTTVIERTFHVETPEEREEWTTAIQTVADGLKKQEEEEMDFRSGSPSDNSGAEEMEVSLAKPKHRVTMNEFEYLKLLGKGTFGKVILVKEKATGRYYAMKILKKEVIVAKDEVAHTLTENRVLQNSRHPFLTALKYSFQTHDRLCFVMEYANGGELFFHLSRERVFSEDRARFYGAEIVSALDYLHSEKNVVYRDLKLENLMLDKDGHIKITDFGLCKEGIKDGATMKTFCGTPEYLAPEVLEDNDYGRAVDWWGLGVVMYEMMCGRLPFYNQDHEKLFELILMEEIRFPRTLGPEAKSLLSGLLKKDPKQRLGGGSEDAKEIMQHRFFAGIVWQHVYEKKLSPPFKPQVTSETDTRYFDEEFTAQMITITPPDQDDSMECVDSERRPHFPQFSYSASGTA

AKT1 WT [5] = target: T2, AKT1 WT; assay: as above; type: cell-based; conditions: HEK293, 2 hours at 37° C.
Target sequence in this assay (P31749 whole entry): as the sequence (P31749 whole entry E17K) above, with K17E counted along it

AKT2 = AKT2 (Homo sapiens (Human), UniProt P31751); assay: as above; type: cell-based; conditions: HEK293, 2 hours at 37° C.
AKT2, sequence (P31751 whole entry): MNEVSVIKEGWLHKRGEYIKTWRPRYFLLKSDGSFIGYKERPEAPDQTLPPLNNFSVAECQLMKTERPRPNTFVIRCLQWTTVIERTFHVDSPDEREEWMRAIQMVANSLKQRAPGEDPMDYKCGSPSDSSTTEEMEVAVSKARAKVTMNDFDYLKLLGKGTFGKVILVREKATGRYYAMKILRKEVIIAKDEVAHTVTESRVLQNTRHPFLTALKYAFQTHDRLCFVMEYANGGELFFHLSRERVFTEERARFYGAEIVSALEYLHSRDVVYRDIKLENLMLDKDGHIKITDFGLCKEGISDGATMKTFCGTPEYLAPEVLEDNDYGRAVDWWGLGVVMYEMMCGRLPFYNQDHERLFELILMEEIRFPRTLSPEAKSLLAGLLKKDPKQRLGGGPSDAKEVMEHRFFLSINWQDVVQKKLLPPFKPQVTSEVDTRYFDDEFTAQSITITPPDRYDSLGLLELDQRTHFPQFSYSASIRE

| SMILES | AKT1 E17K t1/2 (AKT1 E17K [1]) | Off-rate Selectivity E17K/WT (AKT1 E17K [1]) | AKT1 (WT) t1/2 (AKT1 WT [2]) | covalent complex formation with AKT1 WT protein (AKT1 WT [3]) | AKT1 E17K IC50: Selectivity vs AKT1 WT (AKT1 E17K [4]) | AKT1 E17K IC50: Selectivity vs AKT2 (AKT1 E17K [4]) | IC50 (AKT1 E17K [4]) | IC50 (AKT1 WT [5]) | IC50 (AKT2) | covalent complex formation with AKT1 E17K mutant protein (AKT1 E17K mutant protein) | covalent complex formation with AKT1 E17K mutant protein in presence of competitor (AKT1 E17K mutant protein) | covalent complex formation with AKT1 WT protein in presence of competitor (AKT1 WT [3]) | selectivity of complex formation, AKT1 E17K versus AKT1 WT (AKT1 E17K mutant protein; comparison of the spectra without competitor) |
| --- | --- | --- | --- | --- | --- | --- | --- | --- | --- | --- | --- | --- | --- |
| Nc1ncccc1-c1nc2ccc(-c3cccc(N4CCOCC4)c3)nc2n1-c1ccc(CNC(=O)Cc2ccc(C=O)c(O)c2F)cc1 [Example 21, N-({4-[2-(2-aminopyridin-3-yl)-5-[3-(morpholin-4-yl)phenyl]imidazo[4,5-b]pyridin-3-yl]phenyl}methyl)-2-(2-fluoro-4-formyl-3-hydroxyphenyl)acetamide] | 68.2 min | 1.5 | 45.3 min | significant presence of a covalent complex | 1.5 | 4.8 | < 100 nM | < 100 nM | < 100 nM | significant presence of a covalent complex | Essentially no covalent complex formation | Essentially no covalent complex formation |  |
| Nc1ncccc1-c1nc2ccc(-c3ccccc3)nc2n1-c1ccc(CNCCc2ccc(C=O)c(O)c2)cc1 [Compound 133, 4-(2-((4-(2-(2-aminopyridin-3-yl)-5-phenyl-3H-imidazo[4,5-b]pyridin-3-yl)benzyl)amino)ethyl)-2-hydroxybenzaldehyde] | 126 min | 5.6 | 22.7 min | a noticeable level of covalent complex was formed | 1.4 | 4.7 | < 100 nM | < 100 nM | 100 to 500 nM | a covalent complex between Compound 133 and AKT1 E17K mutant protein was observed | essentially no covalent complex formation | essentially no covalent complex formation |  |
| CC(=O)Nc1cc(CCNCc2ccc(-n3c(-c4cccnc4N)nc4ccc(-c5ccccc5)nc43)cc2)ccc1C=O [Compound 110, N-(5-(2-((4-(2-(2-aminopyridin-3-yl)-5-phenyl-3H-imidazo[4,5-b]pyridin-3-yl)benzyl)amino)ethyl)-2-formylphenyl)acetamide] | 43.2 min | 8.8 | 4.9 min | small presence of covalent complex | 1.2 | 5.3 | < 100 nM | < 100 nM | < 100 nM | significant presence of a covalent complex | Essentially little to no covalent complex formation | Essentially no covalent complex formation | selective for complex formation with AKT1 E17K |
| Nc1ncccc1-c1nc2ccc(-c3ccccc3)nc2n1-c1ccc(CNCCc2ccc(C=O)cc2)cc1 [Compound 125, 4-(2-((4-(2-(2-aminopyridin-3-yl)-5-phenyl-3H-imidazo[4,5-b]pyridin-3-yl)benzyl)amino)ethyl)benzaldehyde] | 176 min | 3.9 | 45.3 min | only peaks corresponding to unmodified WT protein | 0.28 | 0.39 | 100 to 500 nM | 100 to 500 nM | 100 to 500 nM | presence of covalent complex | Essentially no covalent complex formation | only peaks corresponding to unmodified WT protein |  |
| Nc1ncccc1-c1nc2cccnc2n1-c1ccc(CNC(=O)C(F)c2ccc(C=O)c(O)c2)cc1 (stereo not shown) [Compound 74, N-({4-[2-(2-aminopyridin-3-yl)imidazo[4,5-b]pyridin-3-yl]phenyl}methyl)-2-fluoro-2-(4-formyl-3-hydroxyphenyl)acetamide] | 73.2 min | 6.1 | 12 min | significant presence of covalent complex | 5.5 | 130 | < 100 nM | < 100 nM | > 500 nM | significant presence of a covalent complex | Essentially little to no covalent complex formation | Essentially no covalent complex formation |  |
| Nc1ncccc1-c1nc2ccc(-c3ccccc3)nc2n1-c1ccc(C2(NC(=O)Cc3ccc(C=O)c(O)c3F)CC2)cc1 [Compound 31, N-(1-{4-[2-(2-aminopyridin-3-yl)-5-phenylimidazo[4,5-b]pyridin-3-yl]phenyl}cyclopropyl)-2-(2-fluoro-4-formyl-3-hydroxyphenyl)acetamide] | 151 min | 1.8 | 85.9 min | presence of a covalent complex | 1.4 | 5.8 | < 100 nM | < 100 nM | < 100 nM | significant presence of a covalent complex | Essentially little to no covalent complex formation | Essentially little to no covalent complex formation |  |

The next lines start with results.

| AKT1 E17K t1/2 (AKT1 E17K [1]) | Off-rate Selectivity E17K/WT (AKT1 E17K [1]) | AKT1 (WT) t1/2 (AKT1 WT [2]) | covalent complex formation with AKT1 WT protein (AKT1 WT [3]) | AKT1 E17K IC50: Selectivity vs AKT1 WT (AKT1 E17K [4]) | AKT1 E17K IC50: Selectivity vs AKT2 (AKT1 E17K [4]) | IC50 (AKT1 E17K [4]) | IC50 (AKT1 WT [5]) | IC50 (AKT2) | SMILES | covalent complex formation with AKT1 E17K mutant protein (AKT1 E17K mutant protein) | covalent complex formation with AKT1 E17K mutant protein in presence of competitor (AKT1 E17K mutant protein) | covalent complex formation with AKT1 WT protein in presence of competitor (AKT1 WT [3]) | selectivity of complex formation, AKT1 E17K versus AKT1 WT (AKT1 E17K mutant protein; comparison of the spectra without competitor) |
| --- | --- | --- | --- | --- | --- | --- | --- | --- | --- | --- | --- | --- | --- |
| 111 min | 4.6 | 24.2 min | presence of a covalent complex | 2.5 | 22 | < 100 nM | < 100 nM | 100 to 500 nM | Nc1ncccc1-c1nc2ccc(-c3ccccc3)nc2n1-c1ccc(CNC(=O)Cc2ccc(C=O)c(O)c2F)cc1 [Compound 94, N-({4-[2-(2-aminopyridin-3-yl)-5-phenylimidazo[4,5-b]pyridin-3-yl]phenyl}methyl)-2-(2-fluoro-4-formyl-3-hydroxyphenyl)acetamide] | presence of a covalent complex | Essentially no covalent complex formation | Essentially no covalent complex formation |  |
| 55.5 min | 5.2 | 10.7 min | significant presence of covalent complex | 4.6 | 64 | < 100 nM | < 100 nM | > 500 nM | Nc1ncccc1-c1nc2cccnc2n1-c1ccc(CNC(=O)Cc2ccc(C=O)c(O)c2)cc1 [Compound 96, N-(4-(2-(2-aminopyridin-3-yl)-3H-imidazo[4,5-b]pyridin-3-yl)benzyl)-2-(4-formyl-3-hydroxyphenyl)acetamide] | significant presence of a covalent complex | Essentially little to no covalent complex formation | Essentially no covalent complex formation |  |

From patent US20250115600A1, “COVALENT MODIFIERS OF AKT1 AND USES THEREOF” (Terremoto Biosciences, Inc., priority 2022, published 2025)
